Assays:
[1] = biological target: T1, CCK-B receptors (rat cerebral cortex) (Rattus norvegicus, UniProt P30553); assay: CCK-B Receptor Binding Test in Rat Cerebral Cortex (Test Example 3); parameters: species or system rat (Sprague-Dawley, male); settings: inhibition of specific 125I-CCK-8 sulfated binding (15 pM), 25° C., 120 min
T1 construct: Cerebral cortex was minced in the same buffer, and homogenized with Polytron; from tissue; host or cells: cerebral cortex membrane fraction of Sprague-Dawley male rats
T1 sequence (P30553 1-452): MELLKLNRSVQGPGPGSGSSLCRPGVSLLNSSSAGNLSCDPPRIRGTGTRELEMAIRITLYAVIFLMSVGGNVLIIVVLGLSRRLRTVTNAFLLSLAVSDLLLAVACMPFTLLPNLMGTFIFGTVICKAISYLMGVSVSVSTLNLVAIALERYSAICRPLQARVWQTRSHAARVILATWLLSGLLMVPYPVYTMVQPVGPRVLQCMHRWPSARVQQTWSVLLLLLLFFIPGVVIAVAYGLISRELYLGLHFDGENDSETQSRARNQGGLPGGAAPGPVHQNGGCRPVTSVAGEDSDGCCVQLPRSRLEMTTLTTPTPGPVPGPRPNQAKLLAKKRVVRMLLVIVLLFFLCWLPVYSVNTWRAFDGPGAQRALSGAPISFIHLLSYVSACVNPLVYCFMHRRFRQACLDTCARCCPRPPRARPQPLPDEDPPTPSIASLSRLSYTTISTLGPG
Experimental: CCK-B Receptor Binding Test in Rat Cerebral Cortex
A rat cortical membrane fraction was prepared in accordance with the method of Chang, et al., Proc. Natl. Acad. Sci., U.S.A., 83, 4923 (1986). Sprague-Dawley male rats were sucrified and the brains were removed and immersed in a 50 mM Tris-HCl buffer (pH 7.4) under ice-cooling, and the cortex was dissected. Cerebral cortex was minced in the same buffer, and homogenized with Polytron. The homogenate was centrifuged at 2,500 g, and the supernatant was further centrifuged at 50,000 g. The pellet was resuspended in a reaction buffer solution (10 mM HEPES, 5 mM MgCl2, 1 mM EGTA, 130 mM NaCl; pH 6.5).
To 150 μl of the resulting rat cerebral cortex suspension were added 20 μl of ^125 I-CCK-8 sulfated (final concentration: 15 pM) and 10 μl of a test compound or a solvent (for total binding) or 1 μM CCK-8 sulfated (for nonspecific binding), and the reaction buffer solution was added there to make 1 ml. The reaction mixture was incubated at 25° C. for 120 minutes, followed by filtration through a GF/B filter (produced by Whatman). The radio-activity of the membrane fraction adsorbed onto the filter was measured with a gamma-counter.
The specific binding to CCK-B receptors was obtained from a difference between the total binding and the nonspecific binding. The IC50 of the test compound in inhibition of specific binding was calculated.

[2] = biological target: T2, gastrin receptors (guinea pig gastric glands) (Cavia porcellus, UniProt H0VZC5); assay: Gastrin Receptor Binding Test in Guinea Pig Gastric Glands (Test Example 1); parameters: species or system guinea pig (Hartley, male); settings: inhibition of specific 125I-gastrin I human binding (22.5 pM), 25° C., 45 min
T2 construct: The gastric glands were isolated from the tissue with a pipette; from tissue; host or cells: isolated gastric glands from gastric mucosa of Hartley male guinea pigs
T2 sequence (H0VZC5 1-426): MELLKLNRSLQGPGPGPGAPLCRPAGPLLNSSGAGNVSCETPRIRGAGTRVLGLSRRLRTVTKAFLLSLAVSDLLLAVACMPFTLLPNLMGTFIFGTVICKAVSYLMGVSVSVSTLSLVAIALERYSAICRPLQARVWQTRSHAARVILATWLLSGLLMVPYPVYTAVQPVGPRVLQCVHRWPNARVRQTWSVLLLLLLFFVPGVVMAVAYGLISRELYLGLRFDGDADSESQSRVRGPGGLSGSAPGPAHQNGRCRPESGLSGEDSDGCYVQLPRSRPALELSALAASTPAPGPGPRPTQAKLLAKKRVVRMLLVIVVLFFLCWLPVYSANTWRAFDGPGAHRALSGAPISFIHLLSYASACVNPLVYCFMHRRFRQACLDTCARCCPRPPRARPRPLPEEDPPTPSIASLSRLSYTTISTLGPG
Experimental: Gastrin Receptor Binding Test in Guinea Pig Gastric Glands
Preparation of Gastric Glands:
Guinea pig gastric glands were prepared according to the method of Chang, et al., Biochem. Biophys. Res. Commun., 134, 895 (1986). The gastric mucosa of a Hartley male guinea pig was peeled off. After washing, the mucosa was minced with scissors in buffer A (Eagle's MEM containing 2 mM L-glutamine and 25 mM HEPES; pH 7.4). After washing, the minced tissue was incubated in buffer A containing 0.025% collagenase, 0.01% soy bean trypsin inhibitor, and 0.1% BSA at 37° C. for 60 minutes under 95% O2 and 5% CO2. The gastric glands were isolated from the tissue with a pipette, washed twice with buffer A, and filtered through a mesh. Then, the gastric glands were obtained by centrifugation.
Guinea pig gastric glands were resuspended in buffer B (Hank's solution containing 10 mM HEPES and 0.2% BSA; pH 7.4) (10 ml of buffer B per guinea pig).
To 200 μl of the suspension containing the resuspended isolated gastric glands were added 20 μl of ^125 I-gastrin I human (final concentration: 22.5 pM). Then, 10 μl of a test compound or a solvent (for total binding) or 10 μM Pentagastrin (for nonspecific binding), and buffer B was added there to make a total volume of 1 ml. The reaction mixture was incubated at 25° C. for 45 minutes and then centrifuged at 12000 g. The supernatant was removed by suction, and the radioactivity of the isolated gastric glands was measured with a gamma-counter.
The specific binding of gastrin to gastrin receptors was obtained from a difference between the total binding and the nonspecific binding. The IC50 of the test compound in inhibition of specific binding was calculated.

[3] = test system: gastric acid secretion; assay: Inhibitory Activity on Gastric Acid Secretion in Pylorus Ligated Rats (Test Example 2); type: in vivo, rat (Sprague-Dawley, male); settings: Rattus norvegicus, intraduodenal, 10 mg/kg, i.d., 4 h
Experimental: Inhibitory Activity on Gastric Acid Secretion in Pyrolus Ligated Rats
Sprague-Dawley male rats weighing about 200 g were deprived of food for 24 hours while allowed water ad libitum. The abdomen was opened under anesthesia with ethyl ether, the pyrolus ligated, and the abdomen closed. The rats were deprived of food and water for 4 hours until they were surcrified with ethyl ether. The stomach was removed, and gastric juice was collected and measured. The gastric juice was centrifuged at 3000 rpm, and the supernatant was titrated up to pH 7.0 with 0.1N NaOH solution to obtain the acidity of the gastric juice. The amount of the gastric acid output was calculated by multiplying the gastric juice volume by the acidity, and the percent inhibition of acid secretion was obtained according to the following equation. A test compound, suspended in a 3% gum arabic solution, was administered intraduodenally at a dose of 2 ml/kg immediately after the pyrolus ligation.
Inhibition (%)=[(Average amount of gastric acid output in control group--Average amount of gastric acid output in test group)/Average amount of gastric acid secreted […]]×100

SMILES | IC50 [1] [nM] | IC50 [2] [nM] | inhibition in vivo at 10 mg/kg [3] [%]
CCOC(CN1C(=O)C(NC(=O)Nc2ccc(C)cc2)(NC(=O)Nc2ccc(C)cc2)c2ccccc21)OC (racemic) [Example 7, (RS)-1-(2-Ethoxy-2-methoxyethyl)-3,3-bis(N'-(4-methylphenyl)ureido)indolin-2-one] | 0.07 |  | 
Cc1ccc(NC(=O)CC2(NC(=O)Nc3ccc(C)cc3)C(=O)N(Cc3ccccc3)c3ccccc32)cc1 (racemic) [Example 62, (RS)-1-Benzyl-3-((4-methylphenyl)aminocarbonylmethyl)-3-(N'-(4-methylphenyl)ureido)indolin-2-one] | 1.2 |  | 
Cc1ccc(NC(=O)CC2(NC(=O)Nc3ccc(C)cc3)C(=O)N(Cc3ccccn3)c3ccccc32)cc1 (racemic) [Example 65, (RS)-3-((4-Methylhenyl)aminocarbonylmethyl)-3-(N'-(4-methylphenyl)ureido)-1-(2-pyridylmethyl)indolin-2-one] | 0.76 |  | 
Cc1ccc(NC(=O)CC2(NC(=O)Nc3ccc(C)cc3)C(=O)N(CCc3ccccc3)c3ccccc32)cc1 (racemic) [Example 66, (RS)-3-((4-Methylphenyl)aminocarbonylmethyl)-3-(N'-(4-methylphenyl)ureido)-1-(2-phenylethyl)indolin-2-one] | 0.76 |  | 
CCOC(CN1C(=O)C(CC(=O)Nc2ccc(C)cn2)(NC(=O)Nc2ccc(C)cc2)c2ccccc21)OCC (racemic) [Example 138, (RS)-1-(2,2-Diethoxyethyl)-3-(N'-(4-methylphenyl)ureido)-3-((5-methylpyrido-2-yl)aminocarbonylmethyl)indolin-2-one] | 0.5 | 2.2 | 69
CCOC(CN1C(=O)C(NC(=O)Nc2ccc(C)cc2)(NC(=O)Nc2ccc(C)cc2)c2ccccc21)OCC [Example 10, 1-(2,2-Diethoxyethyl)-3,3-bis(N'-(4-methylphenyl)ureido)indolin-2-one] |  | 2.5 | 59
CCOC(CN1C(=O)C(NC(=O)Nc2ccc(F)cc2)(NC(=O)Nc2ccc(F)cc2)c2ccccc21)OCC [Example 14, 1-(2,2-Diethoxyethyl)-3,3-bis(N'-(4-fluorophenyl)ureido)indolin-2-one] |  | 2.2 | 49

More lines, main results first:

IC50 [1] [nM] | IC50 [2] [nM] | SMILES | inhibition in vivo at 10 mg/kg [3] [%]
1.2 | 1.1 | CCOC(CN1C(=O)C(CC(=O)Nc2ccc(C)cc2)(NC(=O)Nc2ccc(C)cc2)c2ccccc21)OCC (racemic) [Example 71, (RS)-1-(2,2-Diethoxyethyl)-3-((4-methylphenyl)aminocarbonylmethyl)-3-(N'-(4-methylphenyl)ureido)indolin-2-one] | 48
0.9 | 4.3 | CCOC(CN1C(=O)C(CC(=O)Nc2ccc(C)cc2)(NC(=O)Nc2ccc(C#N)cc2)c2ccccc21)OCC (racemic) [Example 92, (RS)-3-(N'-(4-Cyanophenyl)ureido)-1-(2,2-diethoxyethyl)-3-((4-methylphenyl)aminocarbonylmethyl)indolin-2-one] | 57
0.35 | 5.1 | CCOC(CN1C(=O)C(CC(=O)Nc2cccc(C)c2)(NC(=O)Nc2ccc(C)cc2)c2ccccc21)OCC (racemic) [Example 111, (RS)-1-(2,2-Diethoxyethyl)-3-((3-methylphenyl)aminocarbonylmethyl)-3-(N'-(4-methylphenyl)ureido)indolin-2-one] | 69
0.64 | 2.4 | CCOC(CN1C(=O)C(CC(=O)Nc2ccc(Cl)cc2)(NC(=O)Nc2ccc(C)cc2)c2ccccc21)OCC (racemic) [Example 114, (RS)-3-((4-Chlorophenyl)aminocarbonylmethyl)-1-(2,2-diethoxyethyl)-3-(N'-(4-methylphenyl)ureido)indolin-2-one] | 56
0.18 | 2.9 | CCOC(CN1C(=O)C(CC(=O)Nc2ccc(C)c(C)c2)(NC(=O)Nc2ccc(C)cc2)c2ccccc21)OCC (racemic) [Example 122, (RS)-1-(2,2-Diethoxyethyl)-3-((3,4-dimethylphenyl)aminocarbonylmethyl)-3-(N'-(4-methylphenyl)ureido)indolin-2-one] | 62
0.39 | 3.6 | CCOC(CN1C(=O)C(CC(=O)Nc2cccc(OC)c2)(NC(=O)Nc2ccc(C)cc2)c2ccccc21)OCC (racemic) [Example 129, (RS)-1-(2,2-Diethoxyethyl)-3-((3-methoxyphenyl)aminocarbonylmethyl)-3-(N'-(4-methylphenyl)ureido)indolin-2-one] | 71
2.3 | 4.9 | CCOC(CN1C(=O)C(CC(=O)Nc2ccc(N(C)C)cc2)(NC(=O)Nc2ccc(C)cc2)c2ccccc21)OCC (racemic) [Example 130, (RS)-1-(2,2-Diethoxyethyl)-3-((4-(N,N-dimethylamino)phenyl)aminocarbonylmethyl)-3-(N'-(4-methylphenyl)ureido)indolin-2-one] | 71
1.9 | 1.5 | CCOC(CN1C(=O)C(CC(=O)Nc2ccc(OC)nc2)(NC(=O)Nc2ccc(C)cc2)c2ccccc21)OCC (racemic) [Example 143, (RS)-1-(2,2-Diethoxtyethyl)-3-((2-methoxypyrido-5-yl)aminocarbonylmethyl)-3-(N'-(4-methylphenyl)ureido)indolin-2-one] | 64
2.8 | 6.5 | CCOC(CN1C(=O)C(CC(=O)Nc2ccc(N(C)C)cc2)(NC(=O)Nc2cccc(OC)c2)c2ccccc21)OCC (racemic) [Example 156] | 69

— patent publication US5952511A, “Indolin-2-one derivatives” (Chugai Seiyaku Kabushiki Kaisha, priority 1993, dated 1999)
